The target in series [1] is T1, VCAM-1/α4β1 integrin binding (Homo sapiens, UniProt P05556+P13612).
T1 construct: Jurkat (ATCC TIB-152), known to express integrin α4β1; endogenous in cells; host or cells: Jurkat (ATCC TIB-152)
The series is described as follows: Assay of antagonistic activity to VCAM-1/α4β1 integrin binding under the existence of blood serum (Jurkat cell adhesion to VCAM-1/Fc). Type of series: cell-based. As to conditions: Jurkat cells, recombinant human VCAM-1/Fc, 50% human blood serum. On the procedure:
Assay of Antagonistic Activity to VCAM-1/α4β1 Integrin Binding Under the Existence of Blood Serum
The capacity of a test substance antagonistic to the binding of cell strain of human T cells, Jurkat (ATCC TIB-152), known to express integrin α4β1, to VCAM-1 was determined.
Fifty μl/well of a solution (500 ng/ml) of recombinant human VCAM-1/Fc (R & D systems) diluted with buffer A (0.1 M NaHCO3, pH 9.6) was added to a 96-well microtiter plate (Nunc Maxisorp). After the incubation at 4° C. overnight and washing once with PBS, a buffer (buffer B) obtained by diluting Block Ace (Snow Brand Milk Products Co., Ltd.) with PBS to ½ concentration was added in an amount of 150 μl/well. After the incubation at room temperature for 2 hours, buffer B was removed and the plate was washed with PBS once.
Jurkat cells were washed with Dulbecco modified Eagle medium (SIGMA, hereinafter referred to as “DMEM”) once. Then, the cells were again suspended in a binding buffer (DMEM containing 20 mM HEPES, 0.1% BSA, 2 mM MnCl2 and 50% human blood serum (Sigma)) to become 1×10^6 cells/mL.
Sixty μl of a test substance of various concentrations obtained by the dilution with the binding buffer was added to a round-bottom, 96-well plate (IWAKI). Immediately thereafter, 60 μl of the Jurkat cells (1×10^6 cells/ml) were added thereto and shaken on a plate shaker (IKA-Labortechnik, IKA-SCHUTTLER MTS-4) at 1000 rpm for 10 seconds. In 120 μL of the cell suspension to which the test substance was added, each 100 μL thereof was transferred on the VCAM-1/Fc-coated plate and incubated in dark place at room temperature for 60 minutes. After the shaking on the plate shaker at 1000 rpm for 30 seconds, the solution was immediately removed. Then, the unbound cells were removed by washing them with PBS once. A buffer C (PBS containing 0.82% Triton X-100) was added to the plate in an amount of 70 μL/well. After the shaking on the plate shaker at 1000 rpm for 5 minutes, the bound Jurkat cells were lysed. After centrifuging the cells on a plate centrifuge (SIGMA 4-15C) at room temperature at 2500 rpm for 5 minutes, 50 μL of supernatant thereof was transferred to a 96-well microtiter plate (Nunc Maxisorp). Each 50 μL of Substrate Buffer (Promega, CytoTox 96 Non-Radioactive Cytotoxicity Assay) was added thereto, shaken on a plate shaker at 1000 rpm for 10 seconds and reacted in dark place at room temperature for 30 minutes. Then, each 50 μL of Stop Solution (Promega, CytoTox 96 Non-Radioactive Cytotoxicity Assay) was added thereto and shaken on a plate shaker at 1000 rpm for 10 seconds. […] The absorbance thus obtained detects an activity of lactate dehydrogenase (LDH) dissolved in the supernatant of each well. Namely, the absorbance is proportional to the number of remaining Jurkat cells on the plate via the binding to VCAM-1. The test was conducted in duplicate and the binding rate of each test substance in various concentrations was determined while the absorbance of the test substance-free well was determined to be 100% and the absorbance of the Jurkat-cell-free well was determined to be 0%. The concentration for the 50% inhibition of binding, IC50, was calculated.

Series [2] can be described thus: Pharmacokinetic study by intravenous administration to a rat. Type of series: in vivo. As to conditions: plasma, 1 mg/kg; intravenous single dose, 1 mg/mL solution at 1 mL/kg, Wistar rat, active form; read-out: Total body clearance CLtot (converted). On the procedure: Pharmacokinetic Study by Intravenous Administration to a Rat
After the compounds of the present invention wherein R11 to R141 are a hydroxyl group, which were active forms, were weighed by a scale, they were adjusted by dimethylsulfoxide to become 10 mg/mL. Polyethylene glycol 400 and distilled water were added thereto to prepare 1 mg/mL of an administration solution. 1 mg/mL of the administration solution was intravenously administered as a single dose to a Wistar rat in an amount of 1 mL/kg. 1, 5, 10, 30, 60 and 180 minutes later, the drug concentration in the blood plasma obtained by blood drawing from its cervical vein over time under anesthesia was determined with LC/MS. From the obtained results, the area under the plasma concentration time curve from zero to time infinity (AUCinf (iv)) was calculated in accordance with the trapezoidal method of pharmacokinetic analysis. The total body clearance (CLtot, [L/hr/kg]) was calculated as an index of drug disappearance in the blood plasma from a dose [mg/kg] and AUC [μg×hr/mL] in accordance with the formula: CLtot=Dose÷AUCinf(iv).

As usually defined, the IC50 is the midpoint of a concentration-inhibition curve. What is called clearance is a measure of how efficiently the substance is removed, as volume per time.

T1 sequence (P13612 34-1032): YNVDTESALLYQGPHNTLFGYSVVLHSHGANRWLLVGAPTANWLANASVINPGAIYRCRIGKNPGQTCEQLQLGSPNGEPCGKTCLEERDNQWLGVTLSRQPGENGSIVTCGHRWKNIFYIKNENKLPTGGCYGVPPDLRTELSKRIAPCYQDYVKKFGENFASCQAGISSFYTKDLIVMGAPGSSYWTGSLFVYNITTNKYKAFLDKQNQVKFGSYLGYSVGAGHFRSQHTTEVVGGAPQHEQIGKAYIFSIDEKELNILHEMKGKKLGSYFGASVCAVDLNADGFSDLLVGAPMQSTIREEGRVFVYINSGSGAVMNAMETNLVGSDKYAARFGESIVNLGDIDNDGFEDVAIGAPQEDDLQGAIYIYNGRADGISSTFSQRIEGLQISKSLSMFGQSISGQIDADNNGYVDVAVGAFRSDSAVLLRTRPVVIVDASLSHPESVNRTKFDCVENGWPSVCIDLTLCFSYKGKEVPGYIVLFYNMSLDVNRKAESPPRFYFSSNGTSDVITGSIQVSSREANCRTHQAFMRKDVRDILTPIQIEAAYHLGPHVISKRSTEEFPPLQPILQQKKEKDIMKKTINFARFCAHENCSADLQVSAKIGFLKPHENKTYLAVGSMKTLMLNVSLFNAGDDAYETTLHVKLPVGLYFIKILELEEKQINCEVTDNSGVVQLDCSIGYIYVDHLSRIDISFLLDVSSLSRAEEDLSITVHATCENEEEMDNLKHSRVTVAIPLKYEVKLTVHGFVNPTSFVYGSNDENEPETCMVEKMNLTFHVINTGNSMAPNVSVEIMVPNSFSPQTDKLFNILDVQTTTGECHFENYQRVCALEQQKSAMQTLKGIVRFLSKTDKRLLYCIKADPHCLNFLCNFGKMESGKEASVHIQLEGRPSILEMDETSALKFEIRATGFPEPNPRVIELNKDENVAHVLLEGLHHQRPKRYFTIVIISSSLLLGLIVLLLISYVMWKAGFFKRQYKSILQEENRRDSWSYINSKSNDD
T1 sequence (P05556 21-798): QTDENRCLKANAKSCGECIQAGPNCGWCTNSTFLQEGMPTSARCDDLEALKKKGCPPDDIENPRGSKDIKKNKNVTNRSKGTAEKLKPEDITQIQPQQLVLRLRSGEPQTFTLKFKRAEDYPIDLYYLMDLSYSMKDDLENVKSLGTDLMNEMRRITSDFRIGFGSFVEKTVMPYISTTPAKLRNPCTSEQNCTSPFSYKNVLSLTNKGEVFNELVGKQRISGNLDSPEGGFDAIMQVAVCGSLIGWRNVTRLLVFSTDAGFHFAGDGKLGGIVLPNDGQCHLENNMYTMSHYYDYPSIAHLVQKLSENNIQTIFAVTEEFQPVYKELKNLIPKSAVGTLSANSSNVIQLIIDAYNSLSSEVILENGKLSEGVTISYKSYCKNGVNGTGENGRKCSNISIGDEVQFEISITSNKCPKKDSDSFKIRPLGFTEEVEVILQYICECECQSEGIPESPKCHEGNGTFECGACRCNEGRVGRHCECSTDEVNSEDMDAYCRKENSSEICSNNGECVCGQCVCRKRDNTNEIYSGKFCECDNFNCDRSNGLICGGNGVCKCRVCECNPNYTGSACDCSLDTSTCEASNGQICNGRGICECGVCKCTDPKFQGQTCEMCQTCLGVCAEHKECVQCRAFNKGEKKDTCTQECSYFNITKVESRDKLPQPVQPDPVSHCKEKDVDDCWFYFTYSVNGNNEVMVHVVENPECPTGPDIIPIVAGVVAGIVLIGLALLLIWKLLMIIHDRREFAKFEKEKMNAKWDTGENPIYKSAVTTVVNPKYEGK

Turning to `CN(C)Cc1ccc2c(=O)n(-c3ccc(C[C@H](NC(=O)c4c(Cl)cccc4Cl)C(=O)O)cc3)c(=O)n(C)c2c1.O=C(O)C(F)(F)F` [Example 34, N-(2,6-dichlorobenzoyl)-4-[7-[(dimethylamino)methyl]-1-methyl-2,4-quinazoline-dione-3-yl]-L-phenylalanine Trifluoroacetate], the IC50 in series [1] stood at 10.5 nM. Further, the clearance in series [2] is 5.17 mL/min/kg.

As for `CCNCc1ccc2c(c1)c(=O)n(-c1ccc(C[C@H](NC(=O)c3c(Cl)cccc3Cl)C(=O)O)cc1)c(=O)n2C` [Example 54], the IC50 in series [1] is 14.5 nM. Besides, the clearance in series [2] was 4.5 mL/min/kg.

In the case of `CNCc1ccc2c(c1)c(=O)n(-c1ccc(C[C@H](NC(=O)c3c(Cl)cccc3Cl)C(=O)O)cc1)c(=O)n2C` [Example 99], the IC50 in series [1] is 11.2 nM. Moreover, the clearance in series [2] is 3.83 mL/min/kg.

Values taken from patent US7345049B2, “Phenylalanine derivatives” (Ajinomoto Co., Inc., priority 2003, dated 2008).
